Legend:
Parameters in all cases: scale not given here
ABUTH Velvetleaf [1] = assay: Postemergence herbicidal evaluation, ABUTH; format: in vivo, Abutilon theophrasti, Medic.; settings: postemergence spray, rated about two-three weeks after treatment
Summary of the method: (§1)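 Postemergence spray, 40 psi nozzle, on ~2-week seedlings. Carrier: acetone/water 80/20, 1.0% methylated seed oil; dose ~0.006–0.400 kg/ha. Scored visually at 2–3 weeks.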

AMBEL Ragweed, Common [2] = assay: Postemergence herbicidal evaluation, AMBEL; format: in vivo, Ambrosia artemisifolia, L.; settings: postemergence spray, rated about two-three weeks after treatment
Summary of the method: as §1

CASOB Sicklepod [3] = assay: Postemergence herbicidal evaluation, CASOB; format: in vivo, Cassia obtusifolia, L.; settings: postemergence spray, rated about two-three weeks after treatment
Summary of the method: as §1

[4] = test system: CHEAL Lambsquarters, Common; assay: Postemergence herbicidal evaluation, CHEAL; format: in vivo, Chenopodium album, L.; settings: postemergence spray, rated about two-three weeks after treatment
Summary of the method: as §1

ECHOG Barnyardgrass [5] = assay: Postemergence herbicidal evaluation, ECHOG; format: in vivo, Echinochloa crus-galli, (L.) Beau; settings: postemergence spray, rated about two-three weeks after treatment
Summary of the method: as §1

GALAP Galium [6] = assay: Postemergence herbicidal evaluation, GALAP; format: in vivo, Galium aparine; settings: postemergence spray, rated about two-three weeks after treatment
Summary of the method: as §1

[7] = test system: IPOHE Morningglory, Ivyleaf; assay: Postemergence herbicidal evaluation, IPOHE; format: in vivo, Ipomoea hederacea, (L.) Jacq.; settings: postemergence spray, rated about two-three weeks after treatment
Summary of the method: as §1

SETVI Foxtail, Green [8] = assay: Postemergence herbicidal evaluation, SETVI; format: in vivo, Setaria viridis, (L.) Beau; settings: postemergence spray, rated about two-three weeks after treatment
Summary of the method: as §1

GLXMAW Soybean, Williams [9] = assay: Postemergence herbicidal evaluation, GLXMAW; format: in vivo, Glycine max, (L.) Merr. cv Williams; settings: postemergence spray, rated about two-three weeks after treatment
Summary of the method: as §1

[10] = test system: TRZAWR Wheat, Winter, cv Riband; assay: Postemergence herbicidal evaluation, TRZAWR; format: in vivo, Triticum aestivum; settings: postemergence spray, rated about two-three weeks after treatment
Summary of the method: as §1

ORYSAT Rice, Tebonnet [11] = assay: Postemergence herbicidal evaluation, ORYSAT; format: in vivo, Oryza sativa, (L.); settings: postemergence spray, rated about two-three weeks after treatment
Summary of the method: as §1

ZEAMX Corn, Field [12] = assay: Postemergence herbicidal evaluation, ZEAMX; format: in vivo, Zea mays, L. (Sammel-Bezeichnung); settings: postemergence spray, rated about two-three weeks after treatment
Summary of the method: as §1

ABUTH Velvetleaf [13] = assay: Preemergence herbicidal evaluation, ABUTH; format: in vivo, Abutilon theophrasti, Medic.; settings: preemergence
Summary of the method: (§2)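 Compound applied preemergence as an aqueous acetone spray onto freshly planted cups, dose equivalent approx. 0.013 to 0.800 kg/ha. Evaluation by rating at weeks 4–5.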

AMBEL Ragweed, Common [14] = assay: Preemergence herbicidal evaluation, AMBEL; format: in vivo, Ambrosia artemisifolia, L.; settings: preemergence
Summary of the method: as §2

CASOB Sicklepod [15] = assay: Preemergence herbicidal evaluation, CASOB; format: in vivo, Cassia obtusifolia, L.; settings: preemergence
Summary of the method: as §2

[16] = test system: CHEAL Lambsquarters, Common; assay: Preemergence herbicidal evaluation, CHEAL; format: in vivo, Chenopodium album, L.; settings: preemergence
Summary of the method: as §2

ECHOG Barnyardgrass [17] = assay: Preemergence herbicidal evaluation, ECHOG; format: in vivo, Echinochloa crus-galli, (L.) Beau; settings: preemergence
Summary of the method: as §2

GALAP Galium [18] = assay: Preemergence herbicidal evaluation, GALAP; format: in vivo, Galium aparine; settings: preemergence
Summary of the method: as §2

[19] = test system: IPOHE Morningglory, Ivyleaf; assay: Preemergence herbicidal evaluation, IPOHE; format: in vivo, Ipomoea hederacea, (L.) Jacq.; settings: preemergence
Summary of the method: as §2

SETVI Foxtail, Green [20] = assay: Preemergence herbicidal evaluation, SETVI; format: in vivo, Setaria viridis, (L.) Beau; settings: preemergence
Summary of the method: as §2

GLXMAW Soybean, Williams [21] = assay: Preemergence herbicidal evaluation, GLXMAW; format: in vivo, Glycine max, (L.) Merr. cv Williams; settings: preemergence
Summary of the method: as §2

[22] = test system: TRZAWR Wheat, Winter, cv Riband; assay: Preemergence herbicidal evaluation, TRZAWR; format: in vivo, Triticum aestivum; settings: preemergence
Summary of the method: as §2

ORYSAT Rice, Tebonnet [23] = assay: Preemergence herbicidal evaluation, ORYSAT; format: in vivo, Oryza sativa, (L.); settings: preemergence
Summary of the method: as §2

ZEAMX Corn, Field [24] = assay: Preemergence herbicidal evaluation, ZEAMX; format: in vivo, Zea mays, L. (Sammel-Bezeichnung); settings: preemergence
Summary of the method: as §2

COC(=O)C(C)Oc1ccc(C)cc1-n1nnc2cc(F)c(-n3c(=O)cc(C(F)(F)F)n(C)c3=O)cc21 (centres unmarked) [Example 41]
Postemergence herbicidal rating ABUTH (ABUTH Velvetleaf [1]; 0.008 kg/ha): 9.0 | Postemergence herbicidal rating ABUTH (ABUTH Velvetleaf [1]; 0.016 kg/ha): 9.0 | Postemergence herbicidal rating ABUTH (ABUTH Velvetleaf [1]; 0.032 kg/ha): 9.0 | Postemergence herbicidal rating ABUTH (ABUTH Velvetleaf [1]; 0.062 kg/ha): 9.0 | Postemergence herbicidal rating AMBEL (AMBEL Ragweed, Common [2]; 0.008 kg/ha): 7.0 | Postemergence herbicidal rating AMBEL (AMBEL Ragweed, Common [2]; 0.016 kg/ha): 9.0 | Postemergence herbicidal rating AMBEL (AMBEL Ragweed, Common [2]; 0.032 kg/ha): 9.0 | Postemergence herbicidal rating AMBEL (AMBEL Ragweed, Common [2]; 0.062 kg/ha): 9.0 | Postemergence herbicidal rating CASOB (CASOB Sicklepod [3]; 0.008 kg/ha): 1.0 | Postemergence herbicidal rating CASOB (CASOB Sicklepod [3]; 0.016 kg/ha): 3.0 | Postemergence herbicidal rating CASOB (CASOB Sicklepod [3]; 0.032 kg/ha): 4.0 | Postemergence herbicidal rating CASOB (CASOB Sicklepod [3]; 0.062 kg/ha): 9.0 | Postemergence herbicidal rating CHEAL ([4]; 0.008 kg/ha): 2.0 | Postemergence herbicidal rating CHEAL ([4]; 0.016 kg/ha): 2.0 | Postemergence herbicidal rating CHEAL ([4]; 0.032 kg/ha): 4.0 | Postemergence herbicidal rating CHEAL ([4]; 0.062 kg/ha): 5.0 | Postemergence herbicidal rating ECHCG (ECHOG Barnyardgrass [5]; 0.008 kg/ha): 6. | Postemergence herbicidal rating ECHCG (ECHOG Barnyardgrass [5]; 0.016 kg/ha): 9.0 | Postemergence herbicidal rating ECHCG (ECHOG Barnyardgrass [5]; 0.032 kg/ha): 9.0 | Postemergence herbicidal rating ECHCG (ECHOG Barnyardgrass [5]; 0.062 kg/ha): 9.0 | Postemergence herbicidal rating GALAP (GALAP Galium [6]; 0.008 kg/ha): 0.0 | Postemergence herbicidal rating GALAP (GALAP Galium [6]; 0.016 kg/ha): 1.0 | Postemergence herbicidal rating GALAP (GALAP Galium [6]; 0.032 kg/ha): 3.0 | Postemergence herbicidal rating GALAP (GALAP Galium [6]; 0.062 kg/ha): 3.0 | Postemergence herbicidal rating IPOHE ([7]; 0.008 kg/ha): 9.0 | Postemergence herbicidal rating IPOHE ([7]; 0.016 kg/ha): 9.0 | Postemergence herbicidal rating IPOHE ([7]; 0.032 kg/ha): 9.0 | Postemergence herbicidal rating IPOHE ([7]; 0.062 kg/ha): 9.0 | Postemergence herbicidal rating SETVI (SETVI Foxtail, Green [8]; 0.008 kg/ha): 7.0 | Postemergence herbicidal rating SETVI (SETVI Foxtail, Green [8]; 0.016 kg/ha): 9.0 | Postemergence herbicidal rating SETVI (SETVI Foxtail, Green [8]; 0.032 kg/ha): 9.0 | Postemergence herbicidal rating SETVI (SETVI Foxtail, Green [8]; 0.062 kg/ha): 9.0 | Postemergence herbicidal rating GLXMAW (GLXMAW Soybean, Williams [9]; 0.008 kg/ha): 5.5 | Postemergence herbicidal rating GLXMAW (GLXMAW Soybean, Williams [9]; 0.016 kg/ha): 7.5 | Postemergence herbicidal rating GLXMAW (GLXMAW Soybean, Williams [9]; 0.032 kg/ha): 8.0 | Postemergence herbicidal rating GLXMAW (GLXMAW Soybean, Williams [9]; 0.062 kg/ha): 8.0 | Postemergence herbicidal rating TRZAWR ([10]; 0.008 kg/ha): 6.0 | Postemergence herbicidal rating TRZAWR ([10]; 0.016 kg/ha): 7.0 | Postemergence herbicidal rating TRZAWR ([10]; 0.032 kg/ha): 8.0 | Postemergence herbicidal rating TRZAWR ([10]; 0.062 kg/ha): 8.0 | Postemergence herbicidal rating ORYSAT (ORYSAT Rice, Tebonnet [11]; 0.008 kg/ha): 1.5 | Postemergence herbicidal rating ORYSAT (ORYSAT Rice, Tebonnet [11]; 0.016 kg/ha): 2.5 | Postemergence herbicidal rating ORYSAT (ORYSAT Rice, Tebonnet [11]; 0.032 kg/ha): 7.0 | Postemergence herbicidal rating ORYSAT (ORYSAT Rice, Tebonnet [11]; 0.062 kg/ha): 8.0 | Postemergence herbicidal rating ZEAMX (ZEAMX Corn, Field [12]; 0.008 kg/ha): 6.5 | Postemergence herbicidal rating ZEAMX (ZEAMX Corn, Field [12]; 0.016 kg/ha): 8.0 | Postemergence herbicidal rating ZEAMX (ZEAMX Corn, Field [12]; 0.032 kg/ha): 8.0 | Postemergence herbicidal rating ZEAMX (ZEAMX Corn, Field [12]; 0.062 kg/ha): 9.0 | ABUTH herbicidal rating (ABUTH Velvetleaf [13]; rate 0.016 kg/ha): 4.0 | ABUTH herbicidal rating (ABUTH Velvetleaf [13]; rate 0.032 kg/ha): 4.0 | ABUTH herbicidal rating (ABUTH Velvetleaf [13]; rate 0.062 kg/ha): 9.0 | ABUTH herbicidal rating (ABUTH Velvetleaf [13]; rate 0.125 kg/ha): 9.0 | AMBEL herbicidal rating (AMBEL Ragweed, Common [14]; rate 0.016 kg/ha): 0.0 | AMBEL herbicidal rating (AMBEL Ragweed, Common [14]; rate 0.032 kg/ha): 0.0 | AMBEL herbicidal rating (AMBEL Ragweed, Common [14]; rate 0.062 kg/ha): 0.0 | AMBEL herbicidal rating (AMBEL Ragweed, Common [14]; rate 0.125 kg/ha): 7.0 | CASOB herbicidal rating (CASOB Sicklepod [15]; rate 0.016 kg/ha): 0.0 | CASOB herbicidal rating (CASOB Sicklepod [15]; rate 0.032 kg/ha): 0.0 | CASOB herbicidal rating (CASOB Sicklepod [15]; rate 0.062 kg/ha): 0.0 | CHEAL herbicidal rating ([16]; rate 0.016 kg/ha): 4.0 | CHEAL herbicidal rating ([16]; rate 0.032 kg/ha): 9.0 | CHEAL herbicidal rating ([16]; rate 0.062 kg/ha): 9.0 | CHEAL herbicidal rating ([16]; rate 0.125 kg/ha): 9.0 | ECHCG herbicidal rating (ECHOG Barnyardgrass [17]; rate 0.016 kg/ha): 0.0 | ECHCG herbicidal rating (ECHOG Barnyardgrass [17]; rate 0.032 kg/ha): 0.0 | ECHCG herbicidal rating (ECHOG Barnyardgrass [17]; rate 0.062 kg/ha): 0.0 | ECHCG herbicidal rating (ECHOG Barnyardgrass [17]; rate 0.125 kg/ha): 4.0 | GALAP herbicidal rating (GALAP Galium [18]; rate 0.016 kg/ha): 0.0 | GALAP herbicidal rating (GALAP Galium [18]; rate 0.032 kg/ha): 0.0 | GALAP herbicidal rating (GALAP Galium [18]; rate 0.062 kg/ha): 0.0 | GALAP herbicidal rating (GALAP Galium [18]; rate 0.125 kg/ha): 0.0 | IPOHE herbicidal rating ([19]; rate 0.016 kg/ha): 0.0 | IPOHE herbicidal rating ([19]; rate 0.032 kg/ha): 0.0 | IPOHE herbicidal rating ([19]; rate 0.062 kg/ha): 0.0 | IPOHE herbicidal rating ([19]; rate 0.125 kg/ha): 9.0 | SETVI herbicidal rating (SETVI Foxtail, Green [20]; rate 0.016 kg/ha): 0.0 | SETVI herbicidal rating (SETVI Foxtail, Green [20]; rate 0.032 kg/ha): 0.0 | SETVI herbicidal rating (SETVI Foxtail, Green [20]; rate 0.062 kg/ha): 0.0 | SETVI herbicidal rating (SETVI Foxtail, Green [20]; rate 0.125 kg/ha): 9.0 | GLXMAW herbicidal rating (GLXMAW Soybean, Williams [21]; rate 0.016 kg/ha): 0.0 | GLXMAW herbicidal rating (GLXMAW Soybean, Williams [21]; rate 0.032 kg/ha): 0.0 | GLXMAW herbicidal rating (GLXMAW Soybean, Williams [21]; rate 0.062 kg/ha): 2.0 | GLXMAW herbicidal rating (GLXMAW Soybean, Williams [21]; rate 0.125 kg/ha): 2.0 | TRZAWR herbicidal rating ([22]; rate 0.016 kg/ha): 0.0 | TRZAWR herbicidal rating ([22]; rate 0.032 kg/ha): 0.0 | TRZAWR herbicidal rating ([22]; rate 0.062 kg/ha): 0.0 | TRZAWR herbicidal rating ([22]; rate 0.125 kg/ha): 1.0 | ORYSAT herbicidal rating (ORYSAT Rice, Tebonnet [23]; rate 0.016 kg/ha): 0.0 | ORYSAT herbicidal rating (ORYSAT Rice, Tebonnet [23]; rate 0.032 kg/ha): 0.0 | ORYSAT herbicidal rating (ORYSAT Rice, Tebonnet [23]; rate 0.062 kg/ha): 3.0 | ORYSAT herbicidal rating (ORYSAT Rice, Tebonnet [23]; rate 0.125 kg/ha): 4.0 | ZEAMX herbicidal rating (ZEAMX Corn, Field [24]; rate 0.016 kg/ha): 0.0 | ZEAMX herbicidal rating (ZEAMX Corn, Field [24]; rate 0.032 kg/ha): 0.0 | ZEAMX herbicidal rating (ZEAMX Corn, Field [24]; rate 0.062 kg/ha): 0.0 | ZEAMX herbicidal rating (ZEAMX Corn, Field [24]; rate 0.125 kg/ha): 0.0

From US20020111274A1, “1-alkyl-3-[1-(substituted phenyl) benzotriazol-6-yl] uracils” (BASF Aktiengesellschaft, priority 2000, published 2002)
